Calls of active or inactive are those of the source. No cut-off for these calls is given here.
Experiments:
Estrogen receptor beta = Estrogen receptor beta (Homo sapiens, UniProt Q92731); assay: Antagonist activity at ERbeta expressed in HEK293/Gal4 cells incubated for 24 hrs in presence of di-arylpropionitrile by luciferase reporter gene assay
[1] = Ratio of drug concentration in rat liver to plasma at 20 mg/kg, po measured after 2 hrs
[2] = Drug concentration in rat liver at 20 mg/kg, po measured after 2 hrs; format: ADME, organism-based; conditions: read-out: Ct
T47D = assay: Antiproliferative activity against human T47D cells assessed as inhibition of cell growth measured after 7 days by cell titre glo luminescence assay; format: functional, cell-based; conditions: time 7.0 day
[3] = AUC (0 to t) in ICR mouse at 2 mg/kg, iv measured up to 24 hrs by LC/MS/MS analysis; format: ADME, organism-based; set-up: dose 2 mg/kg, time < 24 hrs, route iv; conditions: in vivo
[4] = Ratio of drug concentration in rat ovary to plasma at 20 mg/kg, po measured after 2 hrs; conditions: female
[5] = Clearance in ICR mouse at 2 mg/kg, iv measured up to 24 hrs by LC/MS/MS analysis; format: ADME, organism-based; conditions: in vivo
[6] = Elimination half life in ICR mouse at 2 mg/kg, iv measured up to 24 hrs by LC/MS/MS analysis; format: ADME, organism-based; conditions: in vivo, read-out: beta t1/2 (converted)
MDA-MB-361 = assay: Antiproliferative activity against human MDA-MB-361 cells assessed as inhibition of cell growth measured after 10 days by cell titre glo luminescence assay; format: functional, cell-based; conditions: time 10.0 day
[7] = molecular target: T1, Estrogen receptor (Homo sapiens) (UniProt P03372); assay: Induction of ERalpha degradation in human MDA-MB-361 cells incubated 24 hrs by Western blot analysis; format: cell-based; conditions: dose 0.1-1000 nM, DDE = dose-dependent effect
T1 sequence (whole entry): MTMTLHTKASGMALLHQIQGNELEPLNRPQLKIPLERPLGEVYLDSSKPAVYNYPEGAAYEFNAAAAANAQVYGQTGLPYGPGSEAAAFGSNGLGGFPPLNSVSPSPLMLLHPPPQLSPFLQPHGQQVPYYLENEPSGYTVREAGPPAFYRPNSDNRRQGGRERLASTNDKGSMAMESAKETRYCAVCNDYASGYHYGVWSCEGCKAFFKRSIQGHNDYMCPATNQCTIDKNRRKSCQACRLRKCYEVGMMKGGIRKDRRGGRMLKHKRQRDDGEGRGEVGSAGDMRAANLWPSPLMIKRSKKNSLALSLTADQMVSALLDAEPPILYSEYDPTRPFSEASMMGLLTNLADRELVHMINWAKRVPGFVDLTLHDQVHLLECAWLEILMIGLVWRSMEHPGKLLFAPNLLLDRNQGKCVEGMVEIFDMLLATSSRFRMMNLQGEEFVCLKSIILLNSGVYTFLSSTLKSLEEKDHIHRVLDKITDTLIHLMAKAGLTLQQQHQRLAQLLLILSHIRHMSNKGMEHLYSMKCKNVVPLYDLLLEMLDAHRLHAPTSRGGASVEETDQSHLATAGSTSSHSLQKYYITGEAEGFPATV

[8] = MRT in ICR mouse at 5 mg/kg, po measured up to 24 hrs by LC/MS/MS analysis; format: ADME, organism-based; conditions: in vivo
[9] = Cmax in Sprague-Dawley rat at 10 mg/kg, po measured up to 24 hrs by LC/MS/MS analysis; format: ADME, organism-based; set-up: time < 24 hrs, dose 10 mg/kg, route po; conditions: in vivo
[10] = Drug concentration in rat ovary at 20 mg/kg, po measured after 2 hrs; format: ADME, organism-based, Female gonad; conditions: female, read-out: Ct
[11] = Oral bioavailability in ICR mouse at 5 mg/kg measured up to 24 hrs by LC/MS/MS analysis; format: ADME, organism-based; conditions: in vivo
[12] = Drug concentration in rat uterus at 20 mg/kg, po measured after 2 hrs; format: ADME, organism-based; conditions: female, read-out: Ct

Estrogen receptor beta, sequence (Q92731 whole entry, the tested form may be a part): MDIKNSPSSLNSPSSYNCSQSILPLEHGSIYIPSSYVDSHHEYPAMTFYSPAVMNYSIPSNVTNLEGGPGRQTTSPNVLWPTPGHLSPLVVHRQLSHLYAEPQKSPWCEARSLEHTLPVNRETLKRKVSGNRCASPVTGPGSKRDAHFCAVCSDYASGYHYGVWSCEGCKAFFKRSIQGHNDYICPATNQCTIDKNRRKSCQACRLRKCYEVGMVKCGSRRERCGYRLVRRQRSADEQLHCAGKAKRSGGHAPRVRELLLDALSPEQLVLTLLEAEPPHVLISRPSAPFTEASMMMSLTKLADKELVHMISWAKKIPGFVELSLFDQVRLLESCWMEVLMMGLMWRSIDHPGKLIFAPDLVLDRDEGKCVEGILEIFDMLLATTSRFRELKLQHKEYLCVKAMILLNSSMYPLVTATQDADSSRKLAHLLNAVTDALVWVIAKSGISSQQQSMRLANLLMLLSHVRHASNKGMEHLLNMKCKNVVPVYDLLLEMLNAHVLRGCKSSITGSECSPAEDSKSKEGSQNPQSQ

SMILES: CC(F)(F)c1cc(Cl)ccc1-c1sc2c(ccc3[nH]ncc32)c1Oc1ccc(OC2CN(CCCF)C2)cc1
- IC50 (Estrogen receptor beta): 2.3 nM
- Kp at 2 h [1]: 34.9
- concentration at 2 h [2]: 212000 ng/mL
- Activity (T47D): Active
- AUC(0-t) at 24 h [3]: 4630 ng·h/mL
- Kp at 2 h [4]: 7.3
- clearance [5]: 7 mL/min/kg
- half-life [6]: 4.6 h
- Activity (MDA-MB-361): Active
- Activity [7]: Dde
- MRT [8]: 8.2 h
- Cmax [9]: 340 ng/mL
- concentration at 2 h [10]: 4420 ng/mL
- bioavailability [11]: 67%
- concentration at 2 h [12]: 2170 ng/mL

— ChEMBL document CHEMBL5154828 (J Med Chem, 2022)
